Laboratory results from article PMC8486872, “A rational blueprint for the design of chemically-controlled protein switches” (Nature Communications, 2021).
Several values for one entry are separate records, joined by “and”; a condition that tells them apart may be missing. Identical values can stand only once.

Key:
HEK293T cells [1] = assay: CCK8 cell viability assay; assay type: cell-based; conditions: for Normalization of Supplementary Figure5a (CCK8 absorbance): in % (unit assumed); for Absorbance at 450nm (CCK8 colormetric assay): Suppl Fig 5a
Description: A cell counting kit-8 (CCK-8) assay (Sigma) was used to measure the cytotoxicity of three drugs on HEK293T cells. 10,000 cells per well were pre-seeded into 96 well plates in 100 µl complete culture medium. The culture medium was changed into drug containing medium with drug concentrations of 0 µM (0.1% DMSO),1 µM, 5 µM and 10 µM. After 24 h drug incubation, 10 µl WST-8 solution was added to each well for 4 h incubation under standard conditions. The absorbance at 450 nm was determined by a multiplate reader (Tecan Infinite 500).
Supplementary Figure 5: Drug toxicity assessment. a) Drug effects on cell viability of HEK293T cells. HEK293T cells were added different concentrations of drugs for an incubation period of 24 hours. WST-8 was added 24 h after drug incubation and the absorbance at 450 nm was measured 4 h later. […]

HEK293T cells [2] = assay: Effect of drugs on protein production (Luciferase reporter, constitutive Gal4-Rel65); assay type: cell-based; conditions: Suppl Fig 5b
Description: Supplementary Figure 5: Drug toxicity assessment. […]
HEK293T cells. The HEK293T cells were transfected with the Luciferase reporter and constitutive Gal4-Rel65 expression plasmid (pCMV-Gal4-Rel65-pA). Drugs were added to the transfected cells 24 hours post-transfection, quantification of luciferase activity 24 hours after the addition of the drugs. Each bar represents the mean of three biological replicates ± s.d overlaid with a scatter dot plot of the original […]

[3] = system: SEAP expression in HEK293T cells; assay: Background signal of SEAP reporter and single-construct controls; assay type: cell-based
Description: Supplementary Figure 7: Dose-dependence and reversibility characterization of CDHs in CDH- […]
transfected with SEAP reporter S132 and treated with 1 µM Drugs 12 hours post transfection.
Quantification of SEAP was performed 24 hours after drug treatment. b) Drug specificity of CDH-TFs. […]
Background signal of SEAP reporter in the absence of the CDH-GEMS system. HEK293T cells were transfected with pLS566 SEAP reporter plasmids and treated with drugs. Quantification of SEAP was performed 24 hours post drug treatment. f) SEAP activity upon transfecting single or paired […]
Quantification of SEAP activity of three CDHs with DMSO (dark color), specific (light color) and unspecific drug treatment (gray). […]
(culture medium) in panels of b, c, f and g were collected every 12 hours. Values were normalized to zero based on the SEAP expression at time 0. a, b, e, f, g) The bar charts show the mean ± s.d. of n = 3 biologically independent samples overlaid with a scatter dot plot of the original data points.

[4] = system: JAK/STAT pathway SEAP expression in HEK293T cells; assay: AIR-GEMS ON-switch SEAP assay; conditions: Fig S11a; 100 nM Drug-2
Description: We fused the AIR components in the ectodomains of the GEMS and measured SEAP activity as a reporter for drug-triggered activation.
HEK293T cells were maintained in DMEM medium with 10% FBS (Gibco) and Pen/Strep (Thermo Fisher). Cells were maintained and split every two days at around 80% confluence. HEK293T cells were seeded 24 h before transfection, and transfected with the lipofectamine 3000 kit (Thermo Fisher). Plasmids were cotransfected according to the Table S7. For the drug OFF-switch experiments, drugs were added 12 h post transfection and incubated with cells for 24 h before the SEAP detection assay.
Representative data of cellular assays are presented as individual values and mean values (bars). n = 3 refers to biological replicates. All IC50/EC50 values of cellular assays (CDH-TF, CDH-GEMS, AIR-TF and AIR-GEMS) reported were calculated using four-parameter nonlinear regression ± s.d.
Bcl2 mutants were cloned into the AIR-GEMS

[5] = target: T1, LD3 in the presence of Drug-1 (Homo sapiens, UniProt Q07817, DEL45-84/F105I/R102E); assay: SPR pre-screening and competition of Drug-1 resistant Bcl-XL mutants binding LD3; conditions: 5 µM receptor mixed with 10 µM Drug-1
T1 construct: 6xHis (N); made in house; host or cells: E. coli BL21(DE3)
T1 sequence (Q07817 with tags, fused parts or gaps DEL45-84/R102E/F105I limits assumed): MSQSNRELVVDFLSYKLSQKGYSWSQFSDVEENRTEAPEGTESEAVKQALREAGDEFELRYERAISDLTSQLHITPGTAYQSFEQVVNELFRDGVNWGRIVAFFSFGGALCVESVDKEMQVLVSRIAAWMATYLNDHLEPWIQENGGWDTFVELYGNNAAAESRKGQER
Description: Supplementary Figure 10: Biophysical and cellular characterization of designed Drug-1- […]
a) Pre-screening of Drug-1 resistant Bcl-XL mutants by SPR. 5 µM of Bcl-XL and five mutants were mixed with 10 µM of Drug-1 and injected over the LD3 immobilized chip to analyse the binding response. […]
dilutions of Drug-1 were pre-mixed with 4 µM LD3 and injected over iBcl-XL_v3 immobilized chip to collect the response. c) Dissociation constant measurement of iBcl-XL_v3 and LD3. Sensorgrams are in black dashed curves and the fitted curves in solid red lines. Kd was using a 1:1 binding model. d) […]
normalized to the positive control (DMSO group). […]

mdm2 = mdm2 (Homo sapiens, UniProt Q00987); set-up: method as in PMID 26768531; conditions: read-out: reported binding affinity to mdm2; cited from earlier work
mdm2, sequence (Q00987 26-109 limits assumed): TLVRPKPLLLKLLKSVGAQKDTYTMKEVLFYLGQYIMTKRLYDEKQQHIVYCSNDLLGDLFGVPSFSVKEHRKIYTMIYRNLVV

Molecule: CN(C)CC#Cc1ccc(OCCCc2sc(N3CCc4cccc(C(=O)Nc5nc6ccccc6s5)c4C3)nc2C(=O)O)c(F)c1 [Drug1]
- Normalization of Supplementary Figure5a (CCK8 absorbance) (HEK293T cells [1]; 1 µM): 107.788 and 102.052 and 84.2322
- Normalization of Supplementary Figure5a (CCK8 absorbance) (HEK293T cells [1]; 5 µM): 106.001 and 108.808 and 85.1912
- Normalization of Supplementary Figure5a (CCK8 absorbance) (HEK293T cells [1]; 10 µM): 101.677 and 96.2978 and 81.5907
- Absorbance at 450nm (CCK8 colormetric assay) (HEK293T cells [1]; 1 µM): 1.2364 and 1.1706 and 0.9662
- Absorbance at 450nm (CCK8 colormetric assay) (HEK293T cells [1]; 5 µM): 1.2159 and 1.2481 and 0.9772
- Absorbance at 450nm (CCK8 colormetric assay) (HEK293T cells [1]; 10 µM): 1.1663 and 1.1046 and 0.9359
- Luciferase production (luminescence) (HEK293T cells [2]; 1 µM): 298584 and 267400 and 264776
- Luciferase production (luminescence) (HEK293T cells [2]; 5 µM): 259902 and 193284 and 231257
- Luciferase production (luminescence) (HEK293T cells [2]; 10 µM): 268448 and 250247 and 248473

Molecule: CC1(C)CCC(CN2CCN(c3ccc(C(=O)NS(=O)(=O)c4ccc(NCC5CCOCC5)c([N+](=O)[O-])c4)c(Oc4cnc5[nH]ccc5c4)c3)CC2)=C(c2ccc(Cl)cc2)C1 [Drug2]
- Normalization of Supplementary Figure5a (CCK8 absorbance) (HEK293T cells [1]; 1 µM): 91.0979 and 90.3939 and 94.3325
- Normalization of Supplementary Figure5a (CCK8 absorbance) (HEK293T cells [1]; 5 µM): 94.2973 and 98.0561 and 96.7732
- Normalization of Supplementary Figure5a (CCK8 absorbance) (HEK293T cells [1]; 10 µM): 95.7875 and 97.7823 and 95.6546
- Absorbance at 450nm (CCK8 colormetric assay) (HEK293T cells [1]; 1 µM): 2.3291 and 2.3111 and 2.4118
- Absorbance at 450nm (CCK8 colormetric assay) (HEK293T cells [1]; 5 µM): 2.4109 and 2.507 and 2.4742
- Absorbance at 450nm (CCK8 colormetric assay) (HEK293T cells [1]; 10 µM): 2.449 and 2.5 and 2.4456
- Luciferase production (luminescence) (HEK293T cells [2]; 1 µM): 239858 and 221880 and 230049
- Luciferase production (luminescence) (HEK293T cells [2]; 5 µM): 235551 and 211876 and 214947
- Luciferase production (luminescence) (HEK293T cells [2]; 10 µM): 249510 and 226877 and 232289

Molecule: Bcl2
- Reporter signal, single constructs vs pair ([3]; Suppl Fig 7f, CDH2): 12.2479 and 10.8467 and 9.94
- Reporter signal, single constructs vs pair ([3]; Suppl Fig 7g (so in the source), CDH2): 12.2479 and 10.8467 and 9.94
- Reporter signal, 100 nM Drug-2 [4]: 0.7857 and 0.8309 and 0.7087

Molecule: Bcl-XL: wildtype drug receptor protein of CDH-1
- Reporter signal, single constructs vs pair ([3]; Suppl Fig 7f, CDH1): 17.1033 and 16.0472 and 16.2645
- Reporter signal, single constructs vs pair ([3]; Suppl Fig 7g (so in the source), CDH1): 17.1033 and 16.0472 and 16.2645
- inhibition by Drug-1 of binding to LD3 immobilized chip [5]: complete inhibition

Molecule: stapled p53 peptide: stapled p53 peptide (PDB 5afg) used as input peptide motif (LTFAEYWAQLAS)
- Kd (mdm2): 0.012 ± 0.003 µM
